Results as given in the CheMixHub viscosity set.

Experiment: xn = mol fraction of the nth substance listed

COCCOCCO + O=C1CCCN1
298.15 K, 101 kPa
Settings	viscosity [mPa·s]
x1 = 0.0019	14.15
x1 = 0.0054	14.04
x1 = 0.0129	13.78
x1 = 0.0209	13.49
x1 = 0.0311	13.16
x1 = 0.0482	12.66
x1 = 0.0682	12.11
x1 = 0.0864	11.61
x1 = 0.1139	10.99
x1 = 0.1615	9.962
x1 = 0.2074	9.178
x1 = 0.2531	8.449
x1 = 0.2817	8.045
x1 = 0.3289	7.543
x1 = 0.3814	7.009
x1 = 0.4684	6.246
x1 = 0.489	6.106
x1 = 0.5396	5.741
x1 = 0.6097	5.295
x1 = 0.6687	4.976
x1 = 0.7169	4.749
x1 = 0.7652	4.502
x1 = 0.8144	4.294
x1 = 0.8697	4.069
x1 = 0.8962	3.972
x1 = 0.9239	3.85
x1 = 0.9469	3.745
x1 = 0.9719	3.658
x2 = 0.0058	3.533
x2 = 0.0141	3.561

CCOC(=O)OCC + COC(=O)OC
298.15 K, 101 kPa
Settings	viscosity [mPa·s]
x1 = 0.0355	0.585
x1 = 0.0848	0.594
x1 = 0.1396	0.603
x1 = 0.2098	0.615
x1 = 0.2886	0.628
x1 = 0.3619	0.641
x1 = 0.4542	0.657
x1 = 0.5424	0.672
x1 = 0.6375	0.689
x1 = 0.7315	0.706
x1 = 0.838	0.726
x1 = 0.8896	0.736
x1 = 0.9462	0.747

CC(C)[C@@H]1CC[C@@H](C)C[C@H]1O + CC(O)CCO
Settings	viscosity [mPa·s]
298.15 K, 101.33 kPa, x1 = 0.5	140.3

CCC#N + CC(C)(C)O
viscosity [mPa·s], 101 kPa
Settings	x2 = 0.0744	x2 = 0.1541	x2 = 0.2403	x2 = 0.3272	x2 = 0.4258	x2 = 0.5242	x2 = 0.6146	x2 = 0.7448	x2 = 0.8667
298.15 K	0.4226	0.4462	0.4934	0.5641	0.6672	0.8059	1.024	1.526	2.346
303.15 K	0.4138	0.4431	0.487	0.5397	0.6276	0.739	0.9208	1.34	2.022
308.15 K	0.3997	0.4317	0.4754	0.5219	0.5918	0.6821	0.8394	1.186	1.741

CCCCCCCCCCO + CCCCCCO
viscosity [mPa·s], 101.8 kPa
Settings	x2 = 0.1493	x2 = 0.3989	x2 = 0.6071	x2 = 0.7831	x2 = 0.9346
298.15 K	10.38	8.464	7.01	5.822	4.905
308.15 K	7.307	6.019	5.068	4.271	3.643
318.15 K	5.25	4.393	3.745	3.191	2.75

CC(C)[C@@H]1CC[C@@H](C)C[C@H]1O + CCCCCCCCCO
Settings	viscosity [mPa·s]
298.15 K, 101.33 kPa, x1 = 0.5	35.03

CCCCCCCCCCO + CCCCCCCCCCCCCCCC
100 kPa, x2 = 0.0921
Settings	viscosity [mPa·s]
298.2 K	9.77
308.2 K	6.71
318.2 K	4.76

CCC#N + CCOC(C)=O
303.15 K, 101.33 kPa
Settings	viscosity [mPa·s]
x1 = 0.1019	0.4034
x1 = 0.1916	0.4041
x1 = 0.2921	0.4038
x1 = 0.3979	0.4025
x1 = 0.4953	0.4012
x1 = 0.5954	0.3976
x1 = 0.6959	0.3954
x1 = 0.7981	0.3935
x1 = 0.9006	0.3915
